Reference: patent US12398140B2, “Substituted pyrrolo [2,3-d]pyrimidines for treating familial dysautonomia” (PTC THERAPEUTICS, INC., priority 2019, dated 2025)

Test system: Elongator complex protein 1 (ELPI, also referred to as IKBKAP)
Assay: IKBKAP-HTRF assay (IKBKAP protein in lysates of FD patient-derived fibroblasts)
Type: cell-based, human
Conditions: FD patient-derived fibroblasts GM04589, 48 hours, 7-point concentration curve
Experimental: The assay is used for the quantitative determination of Elongator complex protein 1 (ELPI, also referred to as IKBKAP) concentration in cell lysates using the HTRF® (Homogeneous Time-Resolved Fluorescence) technology. IKBKAP is detected in a sandwich HTRF assay by use of an anti-IKAP antibody labeled with a donor and an anti-IKAP antibody labeled with an acceptor.
Cells were thawed and incubated in DMEM-10% FBS for 72 hours. Cells were trypsinized, counted, and re-suspended to a concentration of 50,000 cells/ml in DMEM-10% FBS. A 199 μL aliquot of the cell suspensions were plated at 10,000 cells per well in a 96 well microtiter plate and incubated for 3 to 5 hours. […] Test compounds were serially diluted 3.16-fold in 100% DMSO to generate a 7-point concentration curve. A 1 μL aliquot of 200× compound solution was transferred to cell-containing wells, and cells were incubated for 48 hours in a cell culture incubator (37° C., 5% CO2, 100% relative humidity). Triplicate samples were set up for each compound concentration. After 48 hours, the supernatant was removed from the cells and 50 μL of the 1×LB4 lysis buffer, containing protease inhibitors, was added to the cells and incubated with shaking at room temperature for 1 hour. A 36 μL aliquot of this lysate was subsequently transferred to the 384-well plate containing 4 μL of the antibody solution (1:50 dilution of anti IKAP d2 and anti-IKAP K(9+8) in detection buffer). The 384-well plate was then centrifuged for 1 minute to bring the solutions to the bottom of the plate and incubated overnight at 4° C. Fluorescence for each well of the plate at 665 nm and 620 nm was measured was on the EnVision plate reader (Perkin Elmer). The ΔF for each sample is calculated by:
[formula] wherein Signal is the normalized fluorescence for each sample well and Blank is the average normalized average fluorescence for the Blank control wells.
The maximum fold increase (MFI) in IKBKAP protein abundance for compounds of Formula (I) or a form thereof relative to the vehicle control are provided in Table 1. MFI was calculated by dividing the ΔF value for each sample well by the sample ΔF for the vehicle control wells.
The EC2x for IKBKAP protein expression obtained from the 7-point concentration curve generated for each test compound according to the protocol in Biological Example 1 are also provided in Table 1. The term “EC2x for IKBKAP protein expression” is defined as the concentration of test compound that is effective in producing two times the amount of IKBKAP protein in a FD patient cell compared to the amount produced from the DMSO vehicle control.

Structure (SMILES)	EC2x for IKBKAP protein expression (concentration producing two times the amount of IKBKAP protein vs DMSO vehicle control)	MFI (maximum fold increase in IKBKAP protein abundance relative to the vehicle control)
Cc1nc(NCc2ccco2)c2c(F)c(C[C@H](C)N)[nH]c2n1.Cl [Cpd 34, 6-[(2S)-2-aminopropyl]-5-fluoro-N-[(furan-2-yl)methyl]-2-methyl-7H-pyrrolo[2,3-d]pyrimidin-4-amine hydrochloride]	*** (between >0.02 μM and ≤0.5 μM is indicated by three stars (***))	***** (>4.9 is indicated by five stars (*****))
Cc1c(C[C@H](C)N)n(C)c2nc(Cl)nc(NCc3ccco3)c12.Cl [Cpd 35, 6-[(2S)-2-aminopropyl]-2-chloro-N-[(furan-2-yl)methyl]-5,7-dimethyl-7H-pyrrolo[2,3-d]pyrimidin-4-amine hydrochloride]	**** (between >0.005 μM and ≤0.02 μM is indicated by four stars (****))	***** (>4.9 is indicated by five stars (*****))
C[C@H](N)Cc1[nH]c2nc(Cl)nc(NCc3nccs3)c2c1F.Cl [Cpd 36, 6-[(2S)-2-aminopropyl]-2-chloro-5-fluoro-N-[(1,3-thiazol-2-yl)methyl]-7H-pyrrolo[2,3-d]pyrimidin-4-amine hydrochloride]	**** (between >0.005 μM and ≤0.02 μM is indicated by four stars (****))	***** (>4.9 is indicated by five stars (*****))
COC[C@H](N)Cc1c(F)c2c(NCc3ccco3)nc(Cl)nc2n1C.Cl [Cpd 37, 6-[(2R)-2-amino-3-methoxypropyl]-2-chloro-5-fluoro-N-[(furan-2-yl)methyl]-7-methyl-7H-pyrrolo[2,3-d]pyrimidin-4-amine hydrochloride]	*** (between >0.02 μM and ≤0.5 μM is indicated by three stars (***))	***** (>4.9 is indicated by five stars (*****))
C[C@H](N)Cc1c(F)c2c(NCc3nccs3)nc(Cl)nc2n1C.Cl [Cpd 38, 6-[(2S)-2-aminopropyl]-2-chloro-5-fluoro-7-methyl-N-[(1,3-thiazol-2-yl)methyl]-7H-pyrrolo[2,3-d]pyrimidin-4-amine hydrochloride]	*** (between >0.02 μM and ≤0.5 μM is indicated by three stars (***))	***** (>4.9 is indicated by five stars (*****))
Cl.Cn1c(C[C@@H](N)CO)c(F)c2c(NCc3ccco3)nc(Cl)nc21 [Cpd 39, (2R)-2-amino-3-(2-chloro-5-fluoro-4-{[(furan-2-yl)methyl]amino}-7-methyl-7H-pyrrolo[2,3-d]pyrimidin-6-yl)propan-1-ol hydrochloride]	**** (between >0.005 μM and ≤0.02 μM is indicated by four stars (****))	***** (>4.9 is indicated by five stars (*****))
C[C@H](N)Cc1[nH]c2nc(Cl)nc(NCc3cccs3)c2c1F.Cl [Cpd 40, 6-[(2S)-2-aminopropyl]-2-chloro-5-fluoro-N-[(thiophen-2-yl)methyl]-7H-pyrrolo[2,3-d]pyrimidin-4-amine hydrochloride]	**** (between >0.005 μM and ≤0.02 μM is indicated by four stars (****))	***** (>4.9 is indicated by five stars (*****))
C[C@H](N)Cc1c(F)c2c(NCc3ccncc3F)nc(Cl)nc2n1C.Cl.Cl [Cpd 41, 6-[(2S)-2-aminopropyl]-2-chloro-5-fluoro-N-[(3-fluoropyridin-4-yl)methyl]-7-methyl-7H-pyrrolo[2,3-d]pyrimidin-4-amine dihydrochloride]	*** (between >0.02 μM and ≤0.5 μM is indicated by three stars (***))	***** (>4.9 is indicated by five stars (*****))
CCn1c(C[C@H](C)N)c(F)c2c(NCc3ccco3)nc(Cl)nc21.Cl [Cpd 42, 6-[(2S)-2-aminopropyl]-2-chloro-7-ethyl-5-fluoro-N-[(furan-2-yl)methyl]-7H-pyrrolo[2,3-d]pyrimidin-4-amine hydrochloride]	*** (between >0.02 μM and ≤0.5 μM is indicated by three stars (***))	** (between >1.9 and ≤2.9 is indicated by two stars (**))
C[C@H](N)Cc1c(F)c2c(NCc3ccncc3)nc(Cl)nc2n1C.Cl.Cl [Cpd 43, 6-[(2S)-2-aminopropyl]-2-chloro-5-fluoro-7-methyl-N-[(pyridin-4-yl)methyl]-7H-pyrrolo[2,3-d]pyrimidin-4-amine dihydrochloride]	*** (between >0.02 μM and ≤0.5 μM is indicated by three stars (***))	***** (>4.9 is indicated by five stars (*****))
CC[C@H](N)Cc1[nH]c2nc(Cl)nc(NCc3ccco3)c2c1F.Cl [Cpd 44, 6-[(2S)-2-aminobutyl]-2-chloro-5-fluoro-N-[(furan-2-yl)methyl]-7H-pyrrolo[2,3-d]pyrimidin-4-amine hydrochloride]	**** (between >0.005 μM and ≤0.02 μM is indicated by four stars (****))	***** (>4.9 is indicated by five stars (*****))
CC[C@H](N)Cc1c(F)c2c(NCc3ccco3)nc(Cl)nc2n1C.Cl [Cpd 45, 6-[(2S)-2-aminobutyl]-2-chloro-5-fluoro-N-[(furan-2-yl)methyl]-7-methyl-7H-pyrrolo[2,3-d]pyrimidin-4-amine hydrochloride]	*** (between >0.02 μM and ≤0.5 μM is indicated by three stars (***))	***** (>4.9 is indicated by five stars (*****))
COc1ccc(-n2c(C[C@H](C)N)c(F)c3c(NCc4ccco4)nc(Cl)nc32)cc1.Cl [Cpd 46, 6-[(2S)-2-aminopropyl]-2-chloro-5-fluoro-N-[(furan-2-yl)methyl]-7-(4-methoxyphenyl)-7H-pyrrolo[2,3-d]pyrimidin-4-amine hydrochloride]	* (An EC2x>1 μM is indicated by one star (*))	* (An MFI≤1.9 is indicated by one star (*))
COc1ccc(-n2c(C[C@H](C)N)c(F)c3c(NCc4cccs4)nc(Cl)nc32)cc1.Cl [Cpd 47, 6-[(2S)-2-aminopropyl]-2-chloro-5-fluoro-7-(4-methoxyphenyl)-N-[(thiophen-2-yl)methyl]-7H-pyrrolo[2,3-d]pyrimidin-4-amine hydrochloride]	* (An EC2x>1 μM is indicated by one star (*))	* (An MFI≤1.9 is indicated by one star (*))
